In US8067424B2, “Selective inhibitors for cyclin-dependent kinases” (Emory University, priority 2007, dated 2011):
Where two headings read alike, the source gives them in different places.

What was measured:
Assay type in all cases: biochemical
CK2 = assay: Kinase screen: CK2 assay; details: for mean activity remaining (as a percentage of the original activity), CK 2: 10 micromolar compound
Procedure: Generally, the same procedure was used for all assays. Since the total assay volume was 25.5 microliters, 0.5 microliters of inhibitors at 51× assay concentration were added to the plates before any other addition. […] The basic procedure was to add 0.5 microliters inhibitor/control in DMSO to plate. Fifteen microliters of enzyme/substrate/buffer mix were added and incubated for 5 min. Ten microliters MgATP at the relevant concentration were added and incubated for 30 min. […] The assay was transferred to a p81 filter plate and read in a scintillation counter of 30 sec/well. Note that this assay procedure was not followed for MKK1, which instead involved a two-step assay, and PKC alpha, which required the addition of lipid vesicles. CK2 assay: […]

TBK1 = target: T1, TBK1 (Homo sapiens, UniProt Q9UHD2); assay: Kinase screen: TBK1 / TBK1 (DU12569) assay; details: 10 micromolar compound; for remaining activity at 10 µM: read-out: mean activity remaining (as a percentage of the original activity), TBK1
T1 construct: DU12569
T1 sequence (Q9UHD2 1-729): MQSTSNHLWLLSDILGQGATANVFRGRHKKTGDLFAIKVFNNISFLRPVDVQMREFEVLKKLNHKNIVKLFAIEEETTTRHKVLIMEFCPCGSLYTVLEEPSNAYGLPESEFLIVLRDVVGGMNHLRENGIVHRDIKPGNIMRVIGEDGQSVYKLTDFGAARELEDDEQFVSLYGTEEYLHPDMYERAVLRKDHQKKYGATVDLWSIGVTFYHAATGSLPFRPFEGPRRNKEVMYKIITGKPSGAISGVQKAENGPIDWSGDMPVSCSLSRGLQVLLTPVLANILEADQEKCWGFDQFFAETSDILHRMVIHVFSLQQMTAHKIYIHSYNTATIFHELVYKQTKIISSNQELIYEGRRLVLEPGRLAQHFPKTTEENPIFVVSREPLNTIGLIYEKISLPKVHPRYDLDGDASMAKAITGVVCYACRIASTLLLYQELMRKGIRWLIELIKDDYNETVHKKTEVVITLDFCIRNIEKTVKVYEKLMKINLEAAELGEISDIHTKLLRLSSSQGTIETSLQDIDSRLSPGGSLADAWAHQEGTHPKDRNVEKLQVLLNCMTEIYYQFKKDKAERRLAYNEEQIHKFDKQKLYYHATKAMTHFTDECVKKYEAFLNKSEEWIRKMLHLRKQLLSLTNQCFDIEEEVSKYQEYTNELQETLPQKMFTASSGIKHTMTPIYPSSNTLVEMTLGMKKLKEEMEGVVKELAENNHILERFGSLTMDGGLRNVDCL
Procedure: (§1) Generally, the same procedure was used for all assays. Since the total assay volume was 25.5 microliters, 0.5 microliters of inhibitors at 51× assay concentration were added to the plates before any other addition.
(§2) The basic procedure was to add 0.5 microliters inhibitor/control in DMSO to plate. Fifteen microliters of enzyme/substrate/buffer mix were added and incubated for 5 min. Ten microliters MgATP at the relevant concentration were added and incubated for 30 min. The assay was stopped by adding 5 microliters of 3% orthophosphoric acid. The assay was transferred to a p81 filter plate and read in a scintillation counter of 30 sec/well. Note that this assay procedure was not followed for MKK1, which instead involved a two-step assay, and PKC alpha, which required the addition of lipid vesicles.
(§3) TBK1 assay: TBK1 (5-20 mU diluted in 50 mM Tris pH 7.5, 0.1 mM EGTA, 1 mg/ml BSA) was assayed against a substrate peptide ([…]) (SEQ ID NO: 31) in a final volume of 25.5 μl containing 50 mM Tris pH 7.5, 300 μM substrate peptide, 10 mM magnesium acetate and 0.05 mM [33P-g-ATP] (50-1000 cpm/pmole) and incubated for 30 min at room temperature. Assays were stopped by addition of 5 μl of 0.5 M (3%) orthophosphoric acid and then harvested onto P81 Unifilter plates with a wash buffer of 50 mM orthophosphoric acid.
as §3, with “TBK1 (DU12569)” for “TBK1”, “37)” for “31)”

RSK1 = RSK1 (Homo sapiens, UniProt Q15418); assay: Kinase screen: MAPKAP-K1a assay
Sequence of RSK1 (Q15418 whole entry, species assumed): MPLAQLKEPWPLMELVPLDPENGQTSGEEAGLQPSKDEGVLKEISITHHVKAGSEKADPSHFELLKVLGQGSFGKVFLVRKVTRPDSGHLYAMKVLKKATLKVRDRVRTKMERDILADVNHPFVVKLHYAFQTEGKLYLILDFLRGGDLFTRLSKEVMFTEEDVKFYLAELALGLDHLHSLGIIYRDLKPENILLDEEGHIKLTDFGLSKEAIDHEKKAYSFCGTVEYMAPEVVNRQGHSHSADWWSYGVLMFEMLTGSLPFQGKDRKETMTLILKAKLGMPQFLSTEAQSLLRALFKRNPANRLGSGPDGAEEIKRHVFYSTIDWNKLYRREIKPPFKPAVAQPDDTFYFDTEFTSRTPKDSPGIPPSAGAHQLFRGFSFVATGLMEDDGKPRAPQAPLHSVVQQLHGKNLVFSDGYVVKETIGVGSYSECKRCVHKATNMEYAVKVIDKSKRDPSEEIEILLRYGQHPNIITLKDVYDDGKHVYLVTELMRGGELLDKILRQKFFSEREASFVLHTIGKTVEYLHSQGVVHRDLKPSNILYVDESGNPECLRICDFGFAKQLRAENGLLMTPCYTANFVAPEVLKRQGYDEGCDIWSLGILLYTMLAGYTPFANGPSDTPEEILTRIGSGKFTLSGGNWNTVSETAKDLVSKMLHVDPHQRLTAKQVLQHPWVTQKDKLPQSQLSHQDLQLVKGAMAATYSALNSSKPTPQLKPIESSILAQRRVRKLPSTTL
Procedure: as §1, §2
MAPKAP-K1a assay: MAPKAP-K1a (5-20 mU diluted in 20 mM MOPS pH 7.5, 1 mM EDTA, 0.01% Brij35, 5% glycerol, 0.1% b-mercaptoethanol, 1 mg/ml BSA) was assayed against […] (SEQ ID NO: 3) in a final volume of 25.5 μl containing 50 mM Na-b-glycerophosphate pH 7.5, 0.5 mM EDTA, 30 μM substrate peptide, 10 mM magnesium acetate and 0.05 mM [33P-g-ATP] (50-1000 cpm/pmole) and incubated for 40 min at room temperature. Assays were stopped by addition of 5 μl of 0.5 M (3%) orthophosphoric acid and then harvested onto P81 Unifilter plates with a wash buffer of 50 mM orthophosphoric acid.

CHK2 = CHK2 (Homo sapiens, UniProt O96017); assay: Kinase screen: CHK2 assay
Sequence of CHK2 (O96017 whole entry, species assumed): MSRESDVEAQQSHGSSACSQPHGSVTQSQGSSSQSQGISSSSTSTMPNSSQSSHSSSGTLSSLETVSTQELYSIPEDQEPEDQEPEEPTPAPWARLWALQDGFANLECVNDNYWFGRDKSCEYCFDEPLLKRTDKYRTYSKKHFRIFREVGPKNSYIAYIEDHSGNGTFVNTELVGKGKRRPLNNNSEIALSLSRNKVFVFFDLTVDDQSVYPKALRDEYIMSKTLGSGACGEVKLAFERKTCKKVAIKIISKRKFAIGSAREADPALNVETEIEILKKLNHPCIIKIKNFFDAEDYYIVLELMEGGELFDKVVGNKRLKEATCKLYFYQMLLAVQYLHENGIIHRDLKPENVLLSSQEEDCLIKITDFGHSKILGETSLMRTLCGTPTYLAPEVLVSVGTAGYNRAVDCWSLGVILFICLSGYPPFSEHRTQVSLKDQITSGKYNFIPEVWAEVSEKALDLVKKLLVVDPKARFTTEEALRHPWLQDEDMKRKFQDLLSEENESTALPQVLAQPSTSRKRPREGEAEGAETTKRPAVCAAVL
Procedure: as §1, §2
CHK2 assay: CHK2 (5-20 mU diluted in 20 mM MOPS pH 7.5, 1 mM EDTA, 0.1% b-mercaptoethanol, 0.01% Brij-35, 5% glycerol, 1 mg/ml BSA) was assayed against CHKtide substrate peptide ([…]) (SEQ ID NO: 12) in a final volume of 25.5 μl containing 8 mM MOPS pH 7.0, 0.2 mM EDTA, 200 μM CHKtide, 10 mM magnesium acetate and 0.02 mM [33P-g-ATP] (50-1000 cpm/pmole) and incubated for 30 min at room temperature Assays were stopped by addition of 5 μl of 0.5 M (3%) orthophosphoric acid and then harvested onto P81 Unifilter plates with a wash buffer of 50 mM orthophosphoric acid.

[1] = 10 micromolar compound, read-out: mean activity remaining (as a percentage of the original activity), RSK1
[2] = 10 micromolar compound, read-out: mean activity remaining (as a percentage of the original activity), CHK 2

Structure (SMILES) | mean activity remaining (as a percentage of the original activity), CK 2 (CK2) | mean activity remaining (as a percentage of the original activity), TBK1 (TBK1) | mean activity remaining (as a percentage of the original activity), RSK1 (RSK1; 10 micromolar compound) | mean activity remaining (as a percentage of the original activity), CHK 2 (CHK2; 10 micromolar compound) | Mean Remaining Enzyme Activity (%) (CK2; CK2, 10 μM) | remaining activity at 10 µM (RSK1; RSK1, 10 μM, read-out: Mean Remaining Enzyme Activity (%)) | remaining activity at 10 µM (CHK2; CHK2, 10 μM, read-out: Mean Remaining Enzyme Activity (%)) | remaining activity at 10 µM (TBK1) | remaining activity at 10 µM (RSK1; [1]) | remaining activity at 10 µM (CHK2; [2])
CC(C)c1cnn2c(NCc3ccccc3F)cc(NCCCCCN)nc12 [ICEC-0232] | 92% | 91% | 24% | 15% |  |  |  |  |  | 
CC(C)c1cnn2c(NCc3ccccc3)cc(NCCCCCCCN)nc12 [BS-181] |  |  |  |  | 108% | 67% | 36% |  |  | 
CC[C@H](CO)Nc1cc(NCc2ccccc2)n2ncc(C(C)C)c2n1 [ICEC0067] | 87% |  |  |  |  |  |  | 85% | 62% | 70%
C=C[C@H](CO)Nc1cc(NCc2ccccc2)n2ncc(C(C)C)c2n1 [ICEC0065] | 94% |  |  |  |  |  |  | 83% | 79% | 81%
CC(C)c1cnn2c(NCc3ccccc3)cc(N[C@@H](CO)[C@H](O)CO)nc12 [ICEC0318, (3S)-3-(7-(Benzylamino)-3-isopropylpyrazolo[1,5-a]pyrimidin-5-ylamino)butane-1,2,4-triol] | 89% |  |  |  |  |  |  | 87% | 75% | 61%
